Key:
[1] = system: S. lividans pCAO200SU1-FeS-B#9; test: Sulfonylurea metabolism by washed cell suspension (Examples 6-9); format: in vitro ADME, Streptomyces lividans; details: substrate 10006
Description: (§1) Herbicides and their metabolites are measured by HPLC as described by Romesser et al., BBRC 140: 650-659 (1986), herein incorporated by reference, except that 0.1% H3 PO4 is used in both solvents. Chromatographic identity and quantitation of the herbicides and their resulting metabolites is determined by comparing them chromatographically with authentic standard compounds. Identity of the resulting metabolites is also confirmed by UV spectroscopy.
A 100 ml culture of S. griseolus ATCC 11796 in sporulation broth and a 50 ml culture of S. lividans transformed with pCAO400 in YEME broth were prepared and incubated for 24 hours as described. At that time, the S. griseolus culture was split into two 50 ml aliquots into two separate flasks and 25 ml of fresh sporulation broth was added to each and 9 mg of […] was added to one of these cultures to induce cytochrome P450SU1 expression. Fresh YEME broth (25 ml) was added to the S. lividans culture. After an additional 6 hours growth at 30° C., the cells in each culture were harvested as described above, washed twice with MOPS (50 mM, pH 7.2) and recentrifuged. The cell pellets were resuspended in four cell volumes of MOPS (50 mM, pH 7.2) containing 0.2% glucose and about 100 μg/ml of 10004. These cell suspensions were incubated at 30° C. with shaking and aliqouts were taken at 2 and 5.5 hours. The supernatant of each aliquot was analyzed by HPLC and the concentrations of the sulfonylurea compound 10004 and its metabolite 10005 were determined.
S. lividans transformed respectively with pCAO200SU1-FeS-B#9, pCAO200SU#112and pCAO200 were cultured for 36 hours in 400 ml of YEME broth at 30° C. S. griseolus ATCC 11796 was similarly cultured in 400 ml of sporulation broth. Six hours before harvesting the cells, 150 ml of fresh YEME broth was added to the S. lividans cells, and the S. griseolus cells were split into two 200 ml cultures with 100 ml of fresh sporulation broth added to each. 10001 (36 mg) was added to one of the two S. griseolus cultures to induce cytochrome P450SU1. […]

[2] = system: S. lividans pCAO200SU1#12; test: as above; format: in vitro ADME, Streptomyces lividans; details: substrate 10006
Description: as §1, with “spectroscopy. […]” for “spectroscopy.”
(§2) S. lividans transformed respectively with pCAO200SU1-FeS-B#9, pCAO200SU#112and pCAO200 were cultured for 36 hours in 400 ml of YEME broth at 30° C. S. griseolus ATCC 11796 was similarly cultured in 400 ml of sporulation broth. Six hours before harvesting the cells, 150 ml of fresh YEME broth was added to the S. lividans cells, and the S. griseolus cells were split into two 200 ml cultures with 100 ml of fresh sporulation broth added to each. 10001 (36 mg) was added to one of the two S. griseolus cultures to induce cytochrome P450SU1. The cells were prepared as described above in Example 5 and the concentrations of the sulfonylurea compound 10006 and its metabolites 10007, 10008 or 10009 were determined.

[3] = system: S. lividans pCAO200; test: as above; format: in vitro ADME, Streptomyces lividans; details: substrate 10006
Description: as §1, with “spectroscopy. […]” for “spectroscopy.”
as §2

[4] = system: transformed tobacco seedlings; test: Kanamycin resistance of progeny of transformed tobacco (Example 22); format: in vivo, Nicotiana tabacum
Description: Growth medium was prepared from Murishige minimal organics medium (Gibco Laboratories, Grand Island, N.Y.), 8 g/l agar, supplemented with T vitamins (50 ppb biotin, 0.5 ppm pyridoxine HCl, 0.5 ppm thiamine HCl, 5 ppm nicotinic acid, 0.5 ppm folic acid, 2 ppm glycine, 100 ppm myo-inositol), sterilized and placed into sterile PlantCon plant tissue culture containers (Flow Laboratories, McLean, Va.). Tobacco seed obtained from the self-pollination of the primary transformants was surface sterilized by a treatment of not more than 30 min in 20% chlorine bleach, 0.1% sodium dodecyl sulfate, followed by rinsing in distilled water, and placed on the surface of the medium in the sterile containers. Following this treatment, the seed was allowed to germinate and grow under illumination (100 microeinsteins·m^-2 ·s^-1), at 22° C.
The number of loci where t-DNA was incorporated into the genome of the tobacco was determined by segregation analysis of kanamycin resistance in the next generation of progeny. Seed from the self pollination of the primary transformants was grown as described above on medium supplemented with 200 ppm kanamycin sulfate (Sigma). After 21 days, resistant (transformed) plants were unaffected compared to control plants, whereas sensitive plants were smaller, partially chlorotic, and poorly rooted. Determination of the number of genetic loci of the primary transformants was based on the segregation of the kanamycin resistance trait.
Copy number determination is from kanamycin sensitive segregation analysis of about 100 seed.

[5] = system: Arabidopsis thaliana seedlings; test: Seed germination assay of transgenic Arabidopsis (Example 26); format: in vivo; details: Kanamycin 50 mg/l
Description: T2 seed was harvested from selected putative transformants and sown on GM medium containing 50 mg/l kanamycin and that containing 5 ppb 10015. Plates were sealed with filter tape, cold treated for 2 or more days at 4° C., and then incubated for 10 to 20 days at 23° C. under constant illumination as described above. Seedlings were scored as resistant (green, true leaves develop) and sensitive (no true leaves develop). […] The percent of resistant seedlings is inversely proportional with the two selections. Kanamycin is a positive selection for those seedlings that carry the foreign DNA.
Selected T2 seedlings that were kanamycin resistant were transplanted to soil and were grown to maturity at 21° C. daytime (14 hours) 18° C. nighttime (10 hours) at 65-80% relative humidity. T3 seed was collected, sterilized, and germinated on GM medium containing 50 mg/l kanamycin and that containing 5 ppb 10015. Plates were sealed with filter tape, cold treated for 2 or more days at 4° C., and then incubated for 10 to 20 days at 23° C. under constant illumination as described above. Two of the six plants produced seed that was 100% resistant to kanamycin and 100% sensitive to 10015; they are homozygous for the inserted DNA. The other four parents are heterozygous and show an inverse proportion of kanamycin and 10015 resistant seedlings. […] Therefore, seedlings expressing the P450SU1 gene can be negatively selected.
Germination assays of homozygous seed on various concentrations of 10015 were performed to assay the relative sensitivity to 10015 produced by the three different promoters and between independent transformants. Seed was sterilized, sown on GM medium with 0, 0.5, 1, 2, 5, 10 and 20 ppb 10015, incubated, and scored as described above. In addition, seedlings are rated on a scale of one to three for the amount of growth.
Over 500 seed that are homozygous for the P450SU1 coding region were sown on the same plates. The plates were sealed, cold-treated, and incubated as previously described. […] Wild type seedlings were unaffected by the dying transformed seedlings. In addition, when greater than 10,000 seed of a homozygous Cab-SU111 plant was sown on GM medium with 10 ppb 10015, then cold-treated and incubated as described above, eighteen seedlings were resistant to 10015 and were unaffected by neighboring seedlings.

## COc1nc(C)nc(=NC(=O)NS(=O)(=O)c2ccccc2C(=O)O)[nH]1 [compound 10008, N-[(4-methoxy-6-methyl-1,3,5-triazinyl)aminocarbonyl]-2-carboxybenzenesulfonamide]
[1]; 2 h
  concentration in supernatant: 18 µM
[1]; 4 h
  concentration in supernatant: 38 µM
[1]; 6 h
  concentration in supernatant: 55 µM
[2]; 2 h
  concentration in supernatant: 1 µM
[2]; 4 h
  concentration in supernatant: 1 µM
[2]; 6 h
  concentration in supernatant: 1 µM
[3]; 2 h
  concentration in supernatant: 0 nM
[3]; 4 h
  concentration in supernatant: 0 nM
[3]; 6 h
  concentration in supernatant: 0 nM

## NC[C@H]1O[C@H](O[C@H]2[C@H](O)[C@@H](O[C@H]3O[C@H](CO)[C@@H](O)[C@H](N)[C@H]3O)[C@H](N)C[C@@H]2N)[C@H](O)[C@@H](O)[C@@H]1O [Kanamycin, reference compound]
[4]; AGS502 (Control)
  Kanamycin Resistant (plants demonstrating result/total plants): 6/9
[4]; SuFe21.2
  Kanamycin Resistant (plants demonstrating result/total plants): 7/10
[4]; SuFe21.5
  Kanamycin Resistant (plants demonstrating result/total plants): 8/10
[4]; SuFe21.6
  Kanamycin Resistant (plants demonstrating result/total plants): 9/10
[4]; SuFe21.7
  Kanamycin Resistant (plants demonstrating result/total plants): 7/10
[4]; SuFe21.8
  Kanamycin Resistant (plants demonstrating result/total plants): 8/9
[4]; SuFell.1
  Kanamycin Resistant (plants demonstrating result/total plants): 7/9
[4]; SuFell.11
  Kanamycin Resistant (plants demonstrating result/total plants): 7/8
[4]; SuFell.3
  Kanamycin Resistant (plants demonstrating result/total plants): 5/10
[4]; SuFell.4
  Kanamycin Resistant (plants demonstrating result/total plants): 7/10
[4]; SuFell.7
  Kanamycin Resistant (plants demonstrating result/total plants): 9/10
[4]; SuFell.8
  Kanamycin Resistant (plants demonstrating result/total plants): 10/10
[5]; T2 seed ID 12-1, pCab-SU111
  #R number of resistant seedlings: 11
  #S number of sensitive seedlings: 6
  % R percent of seedlings which are resistant: 65%
[5]; T2 seed ID 12-2, pCab-SU111
  #R number of resistant seedlings: 0
  #S number of sensitive seedlings: 12
  % R percent of seedlings which are resistant: 0%
[5]; T2 seed ID 12-4, pCab-SU111
  #R number of resistant seedlings: 13
  #S number of sensitive seedlings: 18
  % R percent of seedlings which are resistant: 42%
[5]; T2 seed ID 12-5, pCab-SU111
  #R number of resistant seedlings: 0
  #S number of sensitive seedlings: 20
  % R percent of seedlings which are resistant: 0%
[5]; T2 seed ID 12-6, pCab-SU111
  #R number of resistant seedlings: 15
  #S number of sensitive seedlings: 9
  % R percent of seedlings which are resistant: 62%
[5]; T2 seed ID 12-7, pCab-SU111
  #R number of resistant seedlings: 21
  #S number of sensitive seedlings: 7
  % R percent of seedlings which are resistant: 75%
[5]; T2 seed ID 12-8, pCab-SU111
  #R number of resistant seedlings: 6
  #S number of sensitive seedlings: 5
  % R percent of seedlings which are resistant: 55%
[5]; T2 seed ID 12-9, pCab-SU111
  #R number of resistant seedlings: 13
  #S number of sensitive seedlings: 3
  % R percent of seedlings which are resistant: 81%
[5]; T2 seed ID 12-10, pCab-SU111
  #R number of resistant seedlings: 0
  #S number of sensitive seedlings: 21
  % R percent of seedlings which are resistant: 0%
[5]; T2 seed ID 12-11, pCab-SU111
  #R number of resistant seedlings: 0
  #S number of sensitive seedlings: 9
  % R percent of seedlings which are resistant: 0%
[5]; T3 seed ID 12-1-1, pCab-SU111
  #R number of resistant seedlings: 184
  #S number of sensitive seedlings: 0
  % R percent of seedlings which are resistant: 100%
[5]; T3 seed ID 12-1-2, pCab-SU111
  #R number of resistant seedlings: 191
  #S number of sensitive seedlings: 0
  % R percent of seedlings which are resistant: 100%
[5]; T3 seed ID 12-1-3, pCab-SU111
  #R number of resistant seedlings: 136
  #S number of sensitive seedlings: 41
  % R percent of seedlings which are resistant: 77%
[5]; T3 seed ID 12-1-4, pCab-SU111
  #R number of resistant seedlings: 98
  #S number of sensitive seedlings: 39
  % R percent of seedlings which are resistant: 72%
[5]; T3 seed ID 12-1-5, pCab-SU111
  #R number of resistant seedlings: 161
  #S number of sensitive seedlings: 56
  % R percent of seedlings which are resistant: 74%
[5]; T3 seed ID 12-1-6, pCab-SU111
  #R number of resistant seedlings: 254
  #S number of sensitive seedlings: 75
  % R percent of seedlings which are resistant: 77%
[5]; WT
  #R number of resistant seedlings: 0
  #S number of sensitive seedlings: 77
  % R percent of seedlings which are resistant: 0%

## COC(=O)c1ccccc1S(=O)(=O)NC(=O)Nc1nc(CO)nc(OC)n1 [compound 10009, N-[(4-methoxy-6-hydroxymethyl-1,3,5-triazin-yl)aminocarbony1]-2-methoxycarbonylbenzenesulfonamide]
[1]; 2 h
  concentration in supernatant: 15 µM
[1]; 4 h
  concentration in supernatant: 33 µM
[1]; 6 h
  concentration in supernatant: 49 µM
[2]; 2 h
  concentration in supernatant: 0 µM
[2]; 4 h
  concentration in supernatant: 1 µM
[2]; 6 h
  concentration in supernatant: 1 µM
[3]; 2 h
  concentration in supernatant: 0 nM
[3]; 4 h
  concentration in supernatant: 0 nM
[3]; 6 h
  concentration in supernatant: 0 nM
